Laboratory results: PMC12291850, “Morin Flavonoid Interaction with Albumin and Its Nanoparticle Conjugation: An Efficient Antioxidant Vehicle for Nutraceuticals” (Antioxidants, 2025)

Assays:
[1] = tested on: human serum albumin (HSA); conditions: fluorescence studies; cited from earlier work
[2] = molecular target: T1, bovine serum albumin (BSA) (Bos taurus, UniProt P02769); test: Fluorescence quenching of BSA by flavonoids (Stern–Volmer, binding equation, van't Hoff); conditions: for Stern–Volmer quenching constant (Ksv): excitation 295 nm; for ΔG°: morin: 293–310 K
T1 construct: purchased Merck (Darmstadt, Germany)
Protocol: Fluorescence quenching spectroscopy was employed to investigate the interaction between bovine serum albumin (BSA) and selected flavonoids, including morin. All measurements were performed using a spectrofluorometer under controlled temperature conditions (25 °C).
To quantify the quenching effect upon encapsulation, the Stern–Volmer equation was applied (Equation (1)):F0/F = 1 + Ksv [Q](1) where F0 and F are the fluorescence intensities of BSA in the absence and presence of quencher (flavonoid), respectively, Ksv is the Stern–Volmer quenching constant, and [Q] is flavonoid concentration.
The binding constant (Ka) and the number of binding sites (n) were calculated using the logarithmic form of the binding equation (Equation (2)):log[(F0 − F)/F] = log Ka + n log[Q](2)
Thermodynamic parameters—Gibbs free energy change (ΔG°) (Equation (3)), enthalpy change (ΔH°), and entropy change (ΔS°)—were determined from the temperature dependence of the binding constant using the van’t Hoff equation (Equation (4)):ΔG° = ΔH° − TΔS°(3) ln Ka = −ΔH°/RT + ΔS°/R(4)

[3] = Encapsulation efficiency in BSA nanoparticles (desolvation, HPLC of supernatant); format: physicochemical; conditions: unchanged when co-loaded with morin
[4] = cited from earlier work
[5] = molecular target: T1, bovine serum albumin (BSA); test: Surface plasmon resonance (SPR) analysis of albumin–morin interaction; format: binding
Protocol: Gold-coated sensor chips were first cleaned and subsequently modified with a self-assembled monolayer (SAM) of 4-mercaptobenzoic acid (4-MBA) to introduce carboxyl functional groups on the sensor surface.
Non-reacted sites were blocked with 1 M ethanolamine (pH 8.5).
Sensorgrams were recorded in real time, and binding responses were referenced against control channels and buffer-only injections.
Equilibrium binding data were analyzed using Langmuir isotherm models to estimate the apparent association constant (Ka), dissociation constant (Kd), and maximum binding response (Rmax). Data fitting and kinetic analysis were performed using the instrument’s integrated software suite.

[6] = Photolysis and photooxidation (hydroxyl radical from H2O2 under UV 254 nm) of morin, HPLC-DAD; format: physicochemical
Protocol: Morin was incorporated into the system by adding small aliquots of a stock solution in ethanol, ensuring the final ethanol concentration remained below 2% (v/v) to avoid solvent-induced effects on photoreactivity. Oxidative conditions were simulated by the addition of hydrogen peroxide to a final concentration of 0.5% (w/v), serving as a source of hydroxyl radicals upon UV activation. Each reaction mixture was vortexed to ensure homogeneity and subsequently transferred into 5 mL double-jacketed quartz cuvettes. The outer surface of each cuvette was coated with opaque black paint to prevent ambient light interference, except for a centrally located circular window (1 cm diameter) designed to permit focused irradiation. A circulating water bath maintained the cuvette temperature at 20 ± 0.5 °C. Photolysis was carried out using a high-power mercury UV lamp emitting at 254 nm. […] Quantitative analysis of morin degradation and spectral changes associated with hydroxyl radical attack was performed using high-performance liquid chromatography with diode array detection (HPLC-DAD) and UV–visible spectrophotometry.
(§1) A high-performance liquid chromatography (HPLC) method was developed and validated to quantify morin for the subsequent evaluation of encapsulation efficiency, drug loading capacity, physicochemical stability, photodegradation under ultraviolet (UV) exposure, and hydroxyl radical scavenging activity. Chromatographic analyses were conducted using a Shimadzu LC-20AT HPLC system (Shimadzu, Kyoto, Japan), equipped with a SIL-20A autosampler and an SPD-M20A photodiode array (PDA) detector. Separation was achieved on a C18 ODS Hypersil column (250 mm × 4.6 mm, 5 μm particle size; Agilent Technologies, Santa Clara, CA, USA). The mobile phase consisted of acetonitrile and 0.1% trifluoroacetic acid in water (30:70, v/v), delivered under isocratic conditions at a flow rate of 1.0 mL/min. The injection volume was set at 20 μL. Morin detection was performed at a wavelength of 360 nm using the PDA detector. The method was optimized to ensure adequate peak resolution, retention time reproducibility, and sensitivity for low-concentration samples. This analytical approach was employed throughout the study to monitor morin concentration in various experimental settings, including nanoparticle formulations and stability assays.

[7] = molecular target: T1, bovine serum albumin (BSA); test: Circular dichroism of BSA with morin under oxidative conditions; conditions: morin 10 and 20 µM, UV irradiation and hydrogen peroxide
Protocol: Measurements were performed using a J-1500 CD spectropolarimeter (JASCO, Tokyo, Japan) equipped with a temperature-controlled cell holder maintained at 25 °C. Spectra were acquired using a 0.1 cm path length quartz cuvette. Each spectrum represents the average of three consecutive scans, recorded at a scanning speed of […] with a response time of 1 s. […] For oxidative conditions, hydrogen peroxide was added to a final concentration of 0.5% (w/v) to promote hydroxyl radical generation. All solutions were prepared in 10 mM phosphate buffer at pH 7.4 and allowed to equilibrate for 15 min before measurement. Spectra were corrected by subtracting the baseline of the corresponding buffer or hydrogen peroxide control solution.

[8] = Encapsulation efficiency in BSA nanoparticles (desolvation, HPLC of supernatant); format: physicochemical
Protocol: as §1
The impact of other antioxidant molecules (ellagic acid and tocopherol succinate) on the behavior of morin encapsulated in BSA nanoparticles in an intestinal environment was assessed through in vitro loading and release experiments. […] Then, ethanol was added dropwise under constant stirring, followed by the addition of 20 µL of an 8% glutaraldehyde solution [25]. The final volume of the mixture was adjusted to 10 mL. After 24 h, the nanoparticles were collected by centrifugation (13,500 rpm, 20 min, and 25 °C) and washed with water. The supernatant was separated for further analysis. To incorporate ellagic acid or tocopherol succinate, each compound—either individually or in combination—was included in the ethanol phase during the dropwise addition. The rest of the procedure remained unchanged. The encapsulation efficiency (%EE) was calculated using Equation (5):(5) %EE=Mi−Mf/Mi×100 where Mi and Mf correspond to the initial amount of morin added during the loading process and the free morin in the supernatant, respectively.

[9] = parameters: method as in doi:10.1039/C6RA20441D; conditions: cited from earlier work
[10] = BSA fluorescence quenching, 25 °C
[11] = flavonoid–BSA complex, van't Hoff analysis
[12] = read-out: binding constant (Ka) (converted)
[13] = BSA nanoparticles prepared via desolvation

T1 sequence (P02769 25-607): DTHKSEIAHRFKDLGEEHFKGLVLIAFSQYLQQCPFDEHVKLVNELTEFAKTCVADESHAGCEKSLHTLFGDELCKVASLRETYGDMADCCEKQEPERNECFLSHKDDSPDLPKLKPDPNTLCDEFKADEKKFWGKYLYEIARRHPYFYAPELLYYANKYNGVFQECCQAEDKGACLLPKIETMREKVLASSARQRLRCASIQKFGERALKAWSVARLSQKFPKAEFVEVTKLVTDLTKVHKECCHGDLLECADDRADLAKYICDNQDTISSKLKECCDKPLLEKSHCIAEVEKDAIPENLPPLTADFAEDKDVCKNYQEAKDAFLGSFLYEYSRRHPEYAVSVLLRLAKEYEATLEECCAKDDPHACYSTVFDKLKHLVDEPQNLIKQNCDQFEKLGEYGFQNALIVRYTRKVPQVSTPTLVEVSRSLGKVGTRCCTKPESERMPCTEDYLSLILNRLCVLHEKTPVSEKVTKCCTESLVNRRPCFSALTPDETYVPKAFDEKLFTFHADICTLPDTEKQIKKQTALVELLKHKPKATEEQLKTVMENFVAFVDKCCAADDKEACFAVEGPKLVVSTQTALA

O=C(/C=C/c1ccc(O)c(O)c1)O[C@H](Cc1ccc(O)c(O)c1)C(=O)O [rosmarinic acid]
association constant (K) [1]: ~10^7 M^−1

O=c1c(O)c(-c2ccc(O)c(O)c2)oc2cc(O)cc(O)c12 [quercetin]
number of binding sites (n) ([2]; BSA fluorescence quenching): 1.13 ± 0.02 | bimolecular quenching rate constant (kq) [2, 10]: 1.88 × 10^13 ±0.03 L mol^−1 s^−1 | Stern–Volmer quenching constant (Ksv) [2, 10]: 1.88 × 10^5 ± 0.02 L mol^−1

O=c1oc2cc(O)ccc2c2oc3cc(O)ccc3c12 [coumestrol]
encapsulation efficiency of coumestrol [3]: 22.4% ± 0.1% | encapsulation efficiency in BSA nanoparticles ([4]; previous studies): 22.4% ± 0.1%

O=c1c(-c2ccc(O)cc2)coc2cc(O[C@@H]3O[C@H](CO)[C@@H](O)[C@H](O)[C@H]3O)cc(O)c12 [genistin]
number of binding sites (n) ([2]; BSA fluorescence quenching): 0.94 ± 0.01 | bimolecular quenching rate constant (kq) [2, 10]: 3.66 × 10^12 ± 0.04 L mol^−1 s^−1 | Stern–Volmer quenching constant (Ksv) [2, 10]: 3.66 × 10^4 ± 0.05 L mol^−1 | ΔG° [2, 11]: –26.9 kJ·mol^−1 | Kd [2, 12]: 29.5 µM

O=c1c(O)c(-c2ccc(O)cc2O)oc2cc(O)cc(O)c12 [morin, 3,5,7,2′,4′-pentahydroxyflavone]
Kd [2]: 5.35 µM | number of binding sites (n) ([2]; BSA fluorescence quenching): 1.10 ± 0.02 | bimolecular quenching rate constant (kq) [2, 10]: 1.76 × 10^13 ± 0.02 L mol^−1 s^−1 | binding constant (Ka) [2, 10]: 187000 L/mol | Stern–Volmer quenching constant (Ksv) [2, 10]: 1.76 × 10^5 ± 0.03 L mol^−1 | ΔH° [2, 11]: –28.7 kJ·mol^−1 | ΔS° [2, 11]: 4.75 J·mol^−1·K^−1 | ΔG° [2, 11]: approximately –30.1 kJ·mol^−1 | Kd [5]: 285 µM | initial morin concentration retained ([6]; UV exposure with hydrogen peroxide, 10 min, 2 µM BSA, pH 7.4): 79% | morin concentration remaining ([6]; UV exposure with hydrogen peroxide, 10 min, absence of BSA, pH 7.4): 61.5% | initial morin concentration remaining ([6]; UV photolysis, 10 min, absence of BSA, phosphate buffer pH 7.4): 94.9% | improvement in morin retention compared to the system without BSA ([6]; photooxidation 10 min, 2 µM BSA): 17.5% | effect on BSA secondary structure (CD ellipticity at 208 and 222 nm) [7]: no significant loss of α-helical structure | %EE of morin ([8]; BSA nanoparticles co-loaded with both ellagic acid and tocopherol succinate): 80% | %EE of morin ([8]; BSA nanoparticles co-loaded with ellagic acid): 76% | %EE of morin ([8]; BSA nanoparticles co-loaded with tocopherol succinate): 72.6% | %EE of morin ([8]; encapsulated alone in BSA nanoparticles (comparison with coumestrol co-loading)): 20.5% ± 3.0% | %EE ([8]; initial [Morin] 0.128 mM): 25.97 ± 4.29% | Morin/BSA molar ratio ([8]; initial [Morin] 0.128 mM): 0.30 ± 0.05 | %EE ([8]; initial [Morin] 0.222 mM): 20.42 ± 0.67% | Morin/BSA molar ratio ([8]; initial [Morin] 0.222 mM): 0.48 ± 0.02 | %EE ([8]; initial [Morin] 0.308 mM): 19.31 ± 0.42% | Morin/BSA molar ratio ([8]; initial [Morin] 0.308 mM): 0.68 ± 0.01 | %EE ([8]; initial [Morin] 0.507 mM): 20.99 ± 0.27% | Morin/BSA molar ratio ([8]; initial [Morin] 0.507 mM): 0.98 ± 0.01 | Morin/BSA molar ratio ([8]; initial [Morin] 0.634 mM): 1.01 ± 0.04 | %EE ([8]; initial [Morin] 1.478 mM): 18.94 ± 0.85% | Morin/BSA molar ratio ([8]; initial [Morin] 1.478 mM): 1.48 ± 0.07 | encapsulation efficiencies (maximum) ([8]; morin in BSA nanoparticles prepared by desolvation): up to 26% | extended release ([9]; 72 h, pH 7.4): up to 80% | initial 6 h release ([9]; stated for both this study (SIF) and the literature study (pH 7.4)): < 40%

O=c1c(-c2ccc(O)cc2)coc2cc(O)cc(O)c12 [genistein]
Kd [2]: 11.4 µM | number of binding sites (n) ([2]; BSA fluorescence quenching): 1.22 ± 0.04 | bimolecular quenching rate constant (kq) [2, 10]: 8.11 × 10^12 ± 0.04 L mol^−1 s^−1 | Stern–Volmer quenching constant (Ksv) [2, 10]: 8.11 × 10^4 ± 0.02 L mol^−1

O=c1c(O)c(-c2ccc(O)c(O)c2)oc2cc(O)ccc12 [fisetin]
average particle size [4, 13]: 200 ± 8 nm | encapsulation efficiency [4, 13]: 84%

O=c1c(O)c(-c2ccc(O)cc2)oc2cc(O)cc(O)c12 [kaempferol]
number of binding sites (n) ([2]; BSA fluorescence quenching): 1.33 ± 0.03 | bimolecular quenching rate constant (kq) [2, 10]: 2.23 × 10^13 ± 0.02 L mol^−1 s^−1 | Stern–Volmer quenching constant (Ksv) [2, 10]: 2.23 × 10^5 ± 0.03 L mol^−1 | Kd [2, 12]: 5.99 µM
